Columns and labels:
[1] = biological target: CHKA (human) (UniProt P35790); experiment: ADP detection assay-Luminescence; settings: ATP 1 µM
[2] = biological target: DGKB (human) (UniProt Q9Y6T7); experiment: ADP detection assay-Luminescence
[3] = biological target: PIK3CA PIK3R1 (human) (UniProt P27986+P42336); experiment: ADP detection assay-Luminescence; settings: ATP 1000 µM
[4] = biological target: PIK3CB PIK3R1 (human) (UniProt P27986+P42338); experiment: ADP detection assay-Luminescence; settings: ATP 1000 µM
[5] = biological target: PIK3CG (human) (UniProt P48736); experiment: ADP detection assay-Luminescence
[6] = biological target: PIP4K2A (human) (UniProt P48426); experiment: ADP detection assay-Luminescence
[7] = biological target: SPHK1 (human) (UniProt Q9NYA1); experiment: ADP detection assay-Luminescence; settings: ATP 10 µM
[8] = biological target: SPHK2 (human) (UniProt Q9NRA0); experiment: ADP detection assay-Luminescence; settings: ATP 1 µM
[9] = tested on: AKT1 (human), P31749 [S473D]; experiment: radiometric filter-binding kinase assay; settings: ATP 5 µM
[10] = biological target: AURKB (human) (UniProt Q96GD4); experiment: radiometric filter-binding kinase assay; settings: ATP 20 µM
Chain of AURKB (human) (Q96GD4 whole entry, looked up): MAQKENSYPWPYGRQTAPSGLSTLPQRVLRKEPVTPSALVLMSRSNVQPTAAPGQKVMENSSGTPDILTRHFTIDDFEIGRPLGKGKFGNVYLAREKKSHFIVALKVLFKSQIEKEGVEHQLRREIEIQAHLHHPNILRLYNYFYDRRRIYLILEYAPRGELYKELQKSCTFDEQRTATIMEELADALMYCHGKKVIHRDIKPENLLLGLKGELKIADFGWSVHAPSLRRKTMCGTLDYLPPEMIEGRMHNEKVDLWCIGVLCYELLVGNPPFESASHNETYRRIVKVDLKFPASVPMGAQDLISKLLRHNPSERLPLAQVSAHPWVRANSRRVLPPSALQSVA

[11] = biological target: CAMKK2 (human) (UniProt Q96RR4); experiment: radiometric filter-binding kinase assay; settings: ATP 20 µM
Chain of CAMKK2 (human) (Q96RR4 whole entry, looked up): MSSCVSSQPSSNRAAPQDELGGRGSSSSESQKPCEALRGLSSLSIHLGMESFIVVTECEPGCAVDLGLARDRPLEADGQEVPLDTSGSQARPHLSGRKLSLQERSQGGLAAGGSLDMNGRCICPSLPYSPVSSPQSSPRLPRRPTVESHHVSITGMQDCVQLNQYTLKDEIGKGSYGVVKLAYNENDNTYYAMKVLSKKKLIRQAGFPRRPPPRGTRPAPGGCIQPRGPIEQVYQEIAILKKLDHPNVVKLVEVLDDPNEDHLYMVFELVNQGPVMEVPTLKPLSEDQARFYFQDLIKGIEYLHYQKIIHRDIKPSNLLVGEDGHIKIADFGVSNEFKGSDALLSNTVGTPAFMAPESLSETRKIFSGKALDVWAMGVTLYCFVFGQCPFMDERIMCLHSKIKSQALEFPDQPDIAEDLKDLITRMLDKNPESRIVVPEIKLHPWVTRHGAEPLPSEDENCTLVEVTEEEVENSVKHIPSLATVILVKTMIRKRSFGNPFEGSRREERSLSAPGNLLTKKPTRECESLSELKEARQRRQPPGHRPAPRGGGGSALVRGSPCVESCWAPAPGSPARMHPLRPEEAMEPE

[12] = biological target: CHEK1 (human) (UniProt O14757); experiment: radiometric filter-binding kinase assay; settings: ATP 20 µM
[13] = biological target: CSNK2A1 (human) (UniProt P68400); experiment: radiometric filter-binding kinase assay; settings: ATP 5 µM
[14] = biological target: EPHB3 (human) (UniProt P54753); experiment: radiometric filter-binding kinase assay; settings: ATP 20 µM
Chain of EPHB3 (human) (P54753 whole entry, looked up): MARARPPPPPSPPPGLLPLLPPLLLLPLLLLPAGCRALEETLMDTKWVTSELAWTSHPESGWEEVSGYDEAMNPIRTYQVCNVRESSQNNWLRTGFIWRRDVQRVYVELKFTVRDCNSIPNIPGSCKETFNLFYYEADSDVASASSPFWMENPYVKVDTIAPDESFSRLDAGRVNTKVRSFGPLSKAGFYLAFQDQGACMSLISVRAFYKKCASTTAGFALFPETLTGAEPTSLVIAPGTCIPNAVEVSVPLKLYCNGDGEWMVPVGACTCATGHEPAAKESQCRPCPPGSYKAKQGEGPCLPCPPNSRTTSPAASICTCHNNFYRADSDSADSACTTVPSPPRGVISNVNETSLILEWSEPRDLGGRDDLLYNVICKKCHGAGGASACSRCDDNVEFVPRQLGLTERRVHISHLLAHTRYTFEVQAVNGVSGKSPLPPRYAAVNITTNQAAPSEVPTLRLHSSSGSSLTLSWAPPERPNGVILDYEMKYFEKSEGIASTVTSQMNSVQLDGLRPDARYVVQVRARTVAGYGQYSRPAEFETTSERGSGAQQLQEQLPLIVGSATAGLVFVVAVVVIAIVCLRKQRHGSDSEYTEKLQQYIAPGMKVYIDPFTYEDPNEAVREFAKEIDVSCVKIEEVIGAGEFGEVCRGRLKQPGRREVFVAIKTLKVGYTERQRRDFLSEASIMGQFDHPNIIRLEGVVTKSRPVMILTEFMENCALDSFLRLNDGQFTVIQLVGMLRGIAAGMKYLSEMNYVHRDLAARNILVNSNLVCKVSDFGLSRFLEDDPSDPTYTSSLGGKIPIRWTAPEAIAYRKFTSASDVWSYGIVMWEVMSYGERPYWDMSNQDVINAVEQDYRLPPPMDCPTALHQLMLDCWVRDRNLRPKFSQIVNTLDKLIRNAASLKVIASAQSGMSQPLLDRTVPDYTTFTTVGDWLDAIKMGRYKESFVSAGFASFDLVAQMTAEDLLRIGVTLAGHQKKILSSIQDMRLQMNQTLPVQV

[15] = biological target: IGF1R (human) (UniProt P08069); experiment: radiometric filter-binding kinase assay; settings: ATP 5 µM
[16] = biological target: IKBKB (human) (UniProt O14920); experiment: radiometric filter-binding kinase assay; settings: ATP 5 µM
[17] = tested on: LCK (mouse); experiment: radiometric filter-binding kinase assay; settings: ATP 50 µM, accession and sequence are those of the human protein
[18] = biological target: MAP2K1 (human) (UniProt Q02750); experiment: radiometric filter-binding kinase assay; settings: ATP 5 µM
[19] = biological target: MAPK13 (human) (UniProt O15264); experiment: radiometric filter-binding kinase assay; settings: ATP 5 µM
[20] = biological target: MAPK15 (human) (UniProt Q8TD08); experiment: radiometric filter-binding kinase assay; settings: ATP 5 µM
Chain of MAPK15 (human) (Q8TD08 whole entry, looked up): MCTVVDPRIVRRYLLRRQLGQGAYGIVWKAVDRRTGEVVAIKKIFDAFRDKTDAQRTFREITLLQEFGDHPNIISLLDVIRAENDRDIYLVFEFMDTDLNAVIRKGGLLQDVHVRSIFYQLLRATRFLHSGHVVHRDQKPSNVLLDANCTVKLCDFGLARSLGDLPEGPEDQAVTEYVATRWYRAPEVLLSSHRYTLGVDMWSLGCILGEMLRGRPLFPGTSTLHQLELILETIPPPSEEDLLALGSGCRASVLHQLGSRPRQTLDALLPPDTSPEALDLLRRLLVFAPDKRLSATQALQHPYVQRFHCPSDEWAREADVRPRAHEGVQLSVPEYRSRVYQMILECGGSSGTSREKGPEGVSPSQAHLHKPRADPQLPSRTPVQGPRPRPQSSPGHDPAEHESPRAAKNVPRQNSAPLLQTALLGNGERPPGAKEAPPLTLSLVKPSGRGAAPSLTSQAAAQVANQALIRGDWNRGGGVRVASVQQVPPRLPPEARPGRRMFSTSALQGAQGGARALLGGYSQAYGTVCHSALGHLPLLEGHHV

[21] = biological target: MARK3 (human) (UniProt P27448); experiment: radiometric filter-binding kinase assay; settings: ATP 5 µM
Chain of MARK3 (human) (P27448 whole entry, looked up): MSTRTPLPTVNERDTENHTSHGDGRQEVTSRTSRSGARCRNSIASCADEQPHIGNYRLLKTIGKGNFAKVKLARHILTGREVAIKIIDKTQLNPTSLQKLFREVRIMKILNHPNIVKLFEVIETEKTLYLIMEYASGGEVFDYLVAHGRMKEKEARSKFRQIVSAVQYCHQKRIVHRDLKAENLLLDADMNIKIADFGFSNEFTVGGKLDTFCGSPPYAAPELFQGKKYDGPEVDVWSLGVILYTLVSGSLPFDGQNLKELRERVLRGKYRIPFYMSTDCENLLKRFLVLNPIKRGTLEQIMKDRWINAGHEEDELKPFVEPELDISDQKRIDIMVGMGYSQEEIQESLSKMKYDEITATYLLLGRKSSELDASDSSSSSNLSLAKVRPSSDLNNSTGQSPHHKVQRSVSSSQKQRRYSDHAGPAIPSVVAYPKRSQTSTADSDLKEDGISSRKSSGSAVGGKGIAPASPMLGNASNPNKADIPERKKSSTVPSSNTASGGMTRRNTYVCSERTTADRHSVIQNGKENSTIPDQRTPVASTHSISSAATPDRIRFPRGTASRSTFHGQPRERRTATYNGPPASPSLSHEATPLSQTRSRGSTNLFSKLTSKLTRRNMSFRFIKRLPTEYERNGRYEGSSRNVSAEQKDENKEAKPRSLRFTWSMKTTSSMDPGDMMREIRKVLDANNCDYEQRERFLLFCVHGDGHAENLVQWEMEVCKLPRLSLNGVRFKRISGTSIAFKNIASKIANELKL

[22] = biological target: MELK (human) (UniProt Q14680); experiment: radiometric filter-binding kinase assay; settings: ATP 50 µM
Chain of MELK (human) (Q14680 whole entry, looked up): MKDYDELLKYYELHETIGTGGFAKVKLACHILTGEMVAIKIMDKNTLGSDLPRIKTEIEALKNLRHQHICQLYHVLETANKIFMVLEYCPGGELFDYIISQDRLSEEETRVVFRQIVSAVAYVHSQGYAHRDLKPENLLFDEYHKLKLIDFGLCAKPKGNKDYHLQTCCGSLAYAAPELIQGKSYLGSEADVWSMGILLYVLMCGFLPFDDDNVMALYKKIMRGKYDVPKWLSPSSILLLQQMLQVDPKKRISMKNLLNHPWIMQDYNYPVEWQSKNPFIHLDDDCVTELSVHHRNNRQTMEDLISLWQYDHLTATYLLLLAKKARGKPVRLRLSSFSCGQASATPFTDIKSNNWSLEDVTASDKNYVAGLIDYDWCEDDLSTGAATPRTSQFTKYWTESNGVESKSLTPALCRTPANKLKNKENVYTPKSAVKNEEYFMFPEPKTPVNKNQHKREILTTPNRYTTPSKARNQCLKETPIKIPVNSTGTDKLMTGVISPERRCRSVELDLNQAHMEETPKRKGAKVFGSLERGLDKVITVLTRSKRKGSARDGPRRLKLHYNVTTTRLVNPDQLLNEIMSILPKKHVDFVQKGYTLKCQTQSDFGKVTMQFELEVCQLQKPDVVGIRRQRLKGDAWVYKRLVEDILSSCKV

[23] = biological target: MKNK2 (human) (UniProt Q9HBH9); experiment: radiometric filter-binding kinase assay; settings: ATP 50 µM
[24] = biological target: PAK4 (human) (UniProt O96013); experiment: radiometric filter-binding kinase assay; settings: ATP 5 µM
Chain of PAK4 (human) (O96013 whole entry, looked up): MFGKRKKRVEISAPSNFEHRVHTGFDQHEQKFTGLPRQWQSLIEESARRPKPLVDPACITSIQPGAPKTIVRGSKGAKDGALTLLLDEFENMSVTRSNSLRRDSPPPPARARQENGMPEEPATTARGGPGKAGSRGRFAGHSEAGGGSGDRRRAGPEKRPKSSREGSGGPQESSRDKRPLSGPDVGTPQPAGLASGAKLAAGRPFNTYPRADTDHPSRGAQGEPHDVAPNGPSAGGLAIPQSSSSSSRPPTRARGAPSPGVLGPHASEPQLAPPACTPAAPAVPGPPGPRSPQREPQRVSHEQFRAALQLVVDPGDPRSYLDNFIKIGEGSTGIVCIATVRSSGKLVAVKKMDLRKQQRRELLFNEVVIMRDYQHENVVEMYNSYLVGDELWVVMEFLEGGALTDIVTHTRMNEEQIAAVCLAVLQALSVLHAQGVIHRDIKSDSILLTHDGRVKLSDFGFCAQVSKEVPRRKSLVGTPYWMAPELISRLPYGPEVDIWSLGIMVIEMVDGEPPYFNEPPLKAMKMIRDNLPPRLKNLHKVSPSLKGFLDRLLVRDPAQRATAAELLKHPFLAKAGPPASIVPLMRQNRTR

[25] = biological target: PHKG1 (human) (UniProt Q16816); experiment: radiometric filter-binding kinase assay; settings: ATP 50 µM
[26] = biological target: PIM2 (human) (UniProt Q9P1W9); experiment: radiometric filter-binding kinase assay; settings: ATP 5 µM
Chain of PIM2 (human) (Q9P1W9 whole entry, looked up): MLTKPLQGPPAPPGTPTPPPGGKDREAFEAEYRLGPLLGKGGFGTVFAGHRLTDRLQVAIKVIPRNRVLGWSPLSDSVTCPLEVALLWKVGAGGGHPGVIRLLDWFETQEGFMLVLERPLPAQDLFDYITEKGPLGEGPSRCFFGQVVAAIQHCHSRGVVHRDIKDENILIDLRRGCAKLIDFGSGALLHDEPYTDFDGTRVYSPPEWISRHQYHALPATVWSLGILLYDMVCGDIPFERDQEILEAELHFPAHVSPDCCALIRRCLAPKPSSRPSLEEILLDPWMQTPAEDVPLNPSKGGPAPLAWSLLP

[27] = biological target: PRKCA (human) (UniProt P17252); experiment: radiometric filter-binding kinase assay; settings: ATP 20 µM
[28] = biological target: RPS6KA1 KD1 KD2 (human) (UniProt Q15418); experiment: radiometric filter-binding kinase assay; settings: ATP 100 µM
[29] = biological target: RPS6KB2 (human) (UniProt Q9UBS0); experiment: radiometric filter-binding kinase assay; settings: ATP 100 µM

- residual activity ([1]; compound 1.0 µM): 98%
- residual activity ([1]; compound 10.0 µM): 94%
- residual activity ([2]; compound 1.0 µM): 98%
- residual activity ([2]; compound 10.0 µM): 99%
- residual activity ([3]; compound 1.0 µM): 107%
- residual activity ([3]; compound 10.0 µM): 117%
- residual activity ([4]; compound 1.0 µM): 103%
- residual activity ([4]; compound 10.0 µM): 115%
- residual activity ([5]; compound 1.0 µM): 101%
- residual activity ([5]; compound 10.0 µM): 102%
- residual activity ([6]; compound 1.0 µM): 101%
- residual activity ([6]; compound 10.0 µM): 100%
- residual activity ([7]; compound 1.0 µM): 99%
- residual activity ([7]; compound 10.0 µM): 103%
- residual activity ([8]; compound 1.0 µM): 100%
- residual activity ([8]; compound 10.0 µM): 98%
- residual activity ([9]; compound 0.1 µM): 87%
- residual activity ([9]; compound 1.0 µM): 69%
- residual activity ([9]; compound 10.0 µM): 52%
- residual activity ([10]; compound 0.1 µM): 89%
- residual activity ([10]; compound 1.0 µM): 87%
- residual activity ([10]; compound 10.0 µM): 49%
- residual activity ([11]; compound 0.1 µM): 99%
- residual activity ([11]; compound 1.0 µM): 98%
- residual activity ([11]; compound 10.0 µM): 80%
- residual activity ([12]; compound 0.1 µM): 90%
- residual activity ([12]; compound 1.0 µM): 83%
- residual activity ([12]; compound 10.0 µM): 83%
- residual activity ([13]; compound 0.1 µM): 96%
- residual activity ([13]; compound 1.0 µM): 92%
- residual activity ([13]; compound 10.0 µM): 83%
- residual activity ([14]; compound 0.1 µM): 132%
- residual activity ([14]; compound 1.0 µM): 139%
- residual activity ([14]; compound 10.0 µM): 101%
- residual activity ([15]; compound 0.1 µM): 72%
- residual activity ([15]; compound 1.0 µM): 95%
- residual activity ([15]; compound 10.0 µM): 82%
- residual activity ([16]; compound 0.1 µM): 195%
- residual activity ([16]; compound 1.0 µM): 230%
- residual activity ([16]; compound 10.0 µM): 192%
- residual activity ([17]; compound 0.1 µM): 91%
- residual activity ([17]; compound 1.0 µM): 92%
- residual activity ([17]; compound 10.0 µM): 88%
- residual activity ([18]; compound 0.1 µM): 117%
- residual activity ([18]; compound 1.0 µM): 104%
- residual activity ([18]; compound 10.0 µM): 96%
- residual activity ([19]; compound 0.1 µM): 89%
- residual activity ([19]; compound 1.0 µM): 82%
- residual activity ([19]; compound 10.0 µM): 91%
- residual activity ([21]; compound 0.1 µM): 94%
- residual activity ([21]; compound 1.0 µM): 83%
- residual activity ([21]; compound 10.0 µM): 82%
- residual activity ([22]; compound 0.1 µM): 94%
- residual activity ([22]; compound 1.0 µM): 101%
- residual activity ([22]; compound 10.0 µM): 87%
- residual activity ([23]; compound 0.1 µM): 92%
- residual activity ([23]; compound 1.0 µM): 93%
- residual activity ([23]; compound 10.0 µM): 79%
- residual activity ([24]; compound 0.1 µM): 93%
- residual activity ([24]; compound 1.0 µM): 88%
- residual activity ([24]; compound 10.0 µM): 88%
- residual activity ([25]; compound 0.1 µM): 100%
- residual activity ([25]; compound 1.0 µM): 96%
- residual activity ([25]; compound 10.0 µM): 104%
- residual activity ([26]; compound 0.1 µM): 90%
- residual activity ([26]; compound 1.0 µM): 90%
- residual activity ([26]; compound 10.0 µM): 100%
- residual activity ([27]; compound 0.1 µM): 119%
- residual activity ([27]; compound 1.0 µM): 106%
- residual activity ([27]; compound 10.0 µM): 62%
- IC50 [28]: 4.7 µM
- residual activity ([28]; compound 0.1 µM): 85%
- residual activity ([28]; compound 1.0 µM): 83%
- residual activity ([28]; compound 10.0 µM): 33%
- IC50 [29]: 65 µM
SMILES: CCc1cncnc1N1CCN(Cc2nc3cc(C(F)(F)F)ccc3[nH]2)CC1
- residual activity ([20]; compound 0.1 µM): 85%
- residual activity ([20]; compound 1.0 µM): 83%
- residual activity ([20]; compound 10.0 µM): 71%

— the kinase profiling compilation of Christmann-Franck et al. (2016)
